{
  "source": "ChEMBL document CHEMBL5370646",
  "about": "“Synthesis and Conformational Analysis of FR901464-Based RNA Splicing Modulators and Their Synergism in Drug-Resistant Cancers” (J Med Chem, 2023)",
  "key": {"HCT-116 [1]": {"test_system": "HCT-116", "assay": "Growth inhibition of human HCT-116 cells assessed as reduction in cell viability incubated for 72 hrs", "type": "functional"}, "A549": {"test_system": "A549", "assay": "Growth inhibition of human A549 cells assessed as reduction in cell viability incubated for 72 hrs", "type": "functional"}, "DMS-114 [2]": {"test_system": "DMS-114", "assay": "Growth inhibition of human DMS-114 cells assessed as reduction in cell viability incubated for 72 hrs", "type": "functional"}, "HCT-116 [3]": {"test_system": "HCT-116", "assay": "Modulation of RNA splicing in human HCT-116 cells assessed as decrease in SF3B1 phosphorylation at thr313 residue by Western blot analysis", "type": "functional, cell-based", "conditions": "dose 3-100 nM"}, "HCT-116 [4]": {"test_system": "HCT-116", "assay": "Modulation of RNA splicing in human HCT-116 cells assessed as decrease in MCL-1S expression by Western blot analysis", "type": "functional, cell-based", "conditions": "dose 3-100 nM"}, "DMS-114 [5]": {"test_system": "DMS-114", "assay": "Synergistic antiproliferative activity against human DMS-114 cells assessed as combination index at 3 nM incubated for 72 hrs in presence of 3.6 uM venetoclax by WST-1 assay", "type": "functional"}, "DMS-114 [6]": {"test_system": "DMS-114", "assay": "Synergistic antiproliferative activity against human DMS-114 cells assessed as combination index at 1 nM incubated for 72 hrs in presence of 4.8 uM venetoclax by WST-1 assay", "type": "functional"}, "DMS-114 [7]": {"test_system": "DMS-114", "assay": "Synergistic antiproliferative activity against human DMS-114 cells assessed as combination index at 1 nM incubated for 72 hrs in presence of 6 uM venetoclax by WST-1 assay", "type": "functional"}, "DMS-114 [8]": {"test_system": "DMS-114", "assay": "Synergistic antiproliferative activity against human DMS-114 cells assessed as combination index at 2 nM incubated for 72 hrs in presence of 3.6 uM venetoclax by WST-1 assay", "type": "functional"}, "DMS-114 [9]": {"test_system": "DMS-114", "assay": "Synergistic antiproliferative activity against human DMS-114 cells assessed as combination index at 2 nM incubated for 72 hrs in presence of 4.8 uM venetoclax by WST-1 assay", "type": "functional"}, "DMS-114 [10]": {"test_system": "DMS-114", "assay": "Synergistic antiproliferative activity against human DMS-114 cells assessed as combination index at 2 nM incubated for 72 hrs in presence of 6 uM venetoclax by WST-1 assay", "type": "functional"}, "DMS-114 [11]": {"test_system": "DMS-114", "assay": "Synergistic antiproliferative activity against human DMS-114 cells assessed as combination index at 3 nM incubated for 72 hrs in presence of 4.8 uM venetoclax by WST-1 assay", "type": "functional"}, "DMS-114 [12]": {"test_system": "DMS-114", "assay": "Synergistic antiproliferative activity against human DMS-114 cells assessed as combination index at 3 nM incubated for 72 hrs in presence of 6 uM venetoclax by WST-1 assay", "type": "functional"}, "DMS-114 [13]": {"test_system": "DMS-114", "assay": "Synergistic antiproliferative activity against human DMS-114 cells assessed as combination index at 3 nM incubated for 72 hrs in presence of 12 uM venetoclax by WST-1 assay", "type": "functional"}, "DMS-53 [14]": {"test_system": "DMS-53", "assay": "Synergistic antiproliferative activity against human DMS-53 cells assessed as combination index at 0.5 nM incubated for 72 hrs in presence of 25 uM venetoclax by WST-1 assay", "type": "functional"}, "DMS-53 [15]": {"test_system": "DMS-53", "assay": "Synergistic antiproliferative activity against human DMS-53 cells assessed as combination index at 0.5 nM incubated for 72 hrs in presence of […] venetoclax by WST-1 assay", "type": "functional"}, "DMS-53 [16]": {"test_system": "DMS-53", "assay": "Synergistic antiproliferative activity against human DMS-53 cells assessed as combination index at 0.5 nM incubated for 72 hrs in presence of […] venetoclax by WST-1 assay", "type": "functional"}, "DMS-53 [17]": {"test_system": "DMS-53", "assay": "Synergistic antiproliferative activity against human DMS-53 cells assessed as combination index at 1 nM incubated for 72 hrs in presence of 25 uM venetoclax by WST-1 assay", "type": "functional"}, "DMS-53 [18]": {"test_system": "DMS-53", "assay": "Synergistic antiproliferative activity against human DMS-53 cells assessed as combination index at 1 nM incubated for 72 hrs in presence of […] venetoclax by WST-1 assay", "type": "functional"}, "DMS-53 [19]": {"test_system": "DMS-53", "assay": "Synergistic antiproliferative activity against human DMS-53 cells assessed as combination index at 1 nM incubated for 72 hrs in presence of […] venetoclax by WST-1 assay", "type": "functional"}, "DMS-53 [20]": {"test_system": "DMS-53", "assay": "Synergistic antiproliferative activity against human DMS-53 cells assessed as combination index at 1.5 nM incubated for 72 hrs in presence of 50 uM venetoclax by WST-1 assay", "type": "functional"}, "DMS-53 [21]": {"test_system": "DMS-53", "assay": "Synergistic antiproliferative activity against human DMS-53 cells assessed as combination index at 1.5 nM incubated for 72 hrs in presence of […] venetoclax by WST-1 assay", "type": "functional"}, "DMS-53 [22]": {"test_system": "DMS-53", "assay": "Synergistic antiproliferative activity against human DMS-53 cells assessed as combination index at 2 nM incubated for 72 hrs in presence of […] venetoclax by WST-1 assay", "type": "functional"}, "DMS-53 [23]": {"test_system": "DMS-53", "assay": "Synergistic antiproliferative activity against human DMS-53 cells assessed as combination index at 2 nM incubated for 72 hrs in presence of 400 […] by WST-1 assay", "type": "functional"}, "[24]": {"assay": "Synergistic antiproliferative activity against human Osimertinib-resistant HCC827AR cell assessed as combination index at 1.5 nM incubated for 72 hrs in presence of 0.25 uM osimertinib by WST-1 assay", "type": "functional"}, "[25]": {"assay": "Synergistic antiproliferative activity against human Osimertinib-resistant HCC827AR cell assessed as combination index at 1.5 nM incubated for 72 hrs in presence of 1 uM osimertinib by WST-1 assay", "type": "functional"}, "[26]": {"assay": "Synergistic antiproliferative activity against human Osimertinib-resistant HCC827AR cell assessed as combination index at 1.5 nM incubated for 72 hrs in presence of 2 uM osimertinib by WST-1 assay", "type": "functional"}, "[27]": {"assay": "Synergistic antiproliferative activity against human Osimertinib-resistant HCC827AR cell assessed as combination index at 1.5 nM incubated for 72 hrs in presence of 4 uM osimertinib by WST-1 assay", "type": "functional"}, "[28]": {"assay": "Synergistic antiproliferative activity against human Osimertinib-resistant HCC827AR cell assessed as combination index at 2 nM incubated for 72 hrs in presence of 0.50 uM osimertinib by WST-1 assay", "type": "functional"}, "[29]": {"assay": "Synergistic antiproliferative activity against human Osimertinib-resistant HCC827AR cell assessed as combination index at 2 nM incubated for 72 hrs in presence of 4 uM osimertinib by WST-1 assay", "type": "functional"}, "[30]": {"assay": "Synergistic antiproliferative activity against human Osimertinib-resistant HCC827AR cell assessed as combination index at 2.5 nM incubated for 72 hrs in presence of 0.50 uM osimertinib by WST-1 assay", "type": "functional"}},
  "data": [
    {"smiles": "COCO[C@@H](C)/C=C\\C(=O)N[C@@H]1C[C@H](C)[C@H](C/C=C(C)/C=C/[C@H]2OC(C)(C)C[C@@]3(CO3)[C@@H]2O)O[C@@H]1C", "values": [
      {"measurement": "GI50", "setting": "HCT-116 [1]", "result": 2, "unit": "nM"},
      {"measurement": "GI50", "setting": "A549", "result": 3.9, "unit": "nM"},
      {"measurement": "GI50", "setting": "DMS-114 [2]", "result": 2.3, "unit": "nM"},
      {"measurement": "Activity", "setting": "HCT-116 [3]", "result": "Dose-Dependent Effect"},
      {"measurement": "Activity", "setting": "HCT-116 [4]", "result": "Dose-Dependent Effect"},
      {"measurement": "CI", "setting": "DMS-114 [5]", "result": 0.23},
      {"measurement": "CI", "setting": "DMS-114 [6]", "result": 1.3},
      {"measurement": "CI", "setting": "DMS-114 [7]", "result": 1.46},
      {"measurement": "CI", "setting": "DMS-114 [8]", "result": 0.63},
      {"measurement": "CI", "setting": "DMS-114 [9]", "result": 0.66},
      {"measurement": "CI", "setting": "DMS-114 [10]", "result": 0.67},
      {"measurement": "CI", "setting": "DMS-114 [11]", "result": 0.21},
      {"measurement": "CI", "setting": "DMS-114 [12]", "result": 0.2},
      {"measurement": "CI", "setting": "DMS-114 [13]", "result": 0.14},
      {"measurement": "CI", "setting": "DMS-53 [14]", "result": 1.33},
      {"measurement": "CI", "setting": "DMS-53 [15]", "result": 1.35},
      {"measurement": "CI", "setting": "DMS-53 [16]", "result": 1.6},
      {"measurement": "CI", "setting": "DMS-53 [17]", "result": 1.04},
      {"measurement": "CI", "setting": "DMS-53 [18]", "result": 0.91},
      {"measurement": "CI", "setting": "DMS-53 [19]", "result": 1.08},
      {"measurement": "CI", "setting": "DMS-53 [20]", "result": 0.63},
      {"measurement": "CI", "setting": "DMS-53 [21]", "result": 0.67},
      {"measurement": "CI", "setting": "DMS-53 [22]", "result": 0.42},
      {"measurement": "CI", "setting": "DMS-53 [23]", "result": 0.33},
      {"measurement": "CI", "setting": "[24]", "result": 0.92},
      {"measurement": "CI", "setting": "[25]", "result": 1.5},
      {"measurement": "CI", "setting": "[26]", "result": 1.34},
      {"measurement": "CI", "setting": "[27]", "result": 0.92},
      {"measurement": "CI", "setting": "[28]", "result": 1.08},
      {"measurement": "CI", "setting": "[29]", "result": 0.87},
      {"measurement": "CI", "setting": "[30]", "result": 0.99}
    ]}
  ]
}
